Measured values taken from ChEMBL document CHEMBL1159270, “Bruceosides D, E, and F, three new cytotoxic quassinoid glucosides from Brucea javanica” (1995).

Tests used:
Type in all cases: functional
[1] = Growth inhibition of human MCF7/ADR cells; conditions: NCI/ADR-RES
[2] = system: KM12; assay: Growth inhibition of human KM12 cells
[3] = system: 786-0; assay: Growth inhibition of human 786-0 cells
[4] = system: U-251; assay: Growth inhibition of human U251 cells
[5] = system: HCT-116; assay: Growth inhibition of human HCT116 cells
[6] = system: UACC-257; assay: Growth inhibition of human UACC257 cells
[7] = system: MCF7; assay: Growth inhibition of human MCF7 cells
[8] = system: CAKI-1; assay: Growth inhibition of human Caki1 cells
[9] = system: UACC-62; assay: Growth inhibition of human UACC62 cells
[10] = system: ACHN; assay: Growth inhibition of human ACHN cells
[11] = system: HT-29; assay: Growth inhibition of human HT-29 cells
[12] = system: SF-268; assay: Growth inhibition of human SF268 cells
[13] = system: A498; assay: Growth inhibition of human A498 cells
[14] = system: PC-3; assay: Growth inhibition of human PC3 cells
[15] = system: NCI-H226; assay: Growth inhibition of human NCI-H226 cells
[16] = system: NCI-H23; assay: Growth inhibition of human NCI-H23 cells
[17] = system: M14; assay: Growth inhibition of human M14 cells
[18] = Growth inhibition of human Hs 578T cells
[19] = system: NCI-H522; assay: Growth inhibition of human NCI-H522 cells
[20] = system: HOP-92; assay: Growth inhibition of human HOP92 cells
[21] = system: NCI-H322M; assay: Growth inhibition of human NCI-H322M cells
[22] = system: HOP-62; assay: Growth inhibition of human HOP62 cells
[23] = system: SK-MEL-5; assay: Growth inhibition of human SK-MEL-5 cells
[24] = system: NCI-H460; assay: Growth inhibition of human NCI-H460 cells
[25] = system: HCC 2998; assay: Growth inhibition of human HCC2998 cells
[26] = system: SK-MEL-28; assay: Growth inhibition of human SK-MEL-28 cells
[27] = system: HL-60(TB); assay: Growth inhibition of human HL-60(TB) cells
[28] = system: MDA-MB-231; assay: Growth inhibition of human MDA-MB-231 cells
[29] = system: SW-620; assay: Growth inhibition of human SW620 cells
[30] = system: OVCAR-4; assay: Growth inhibition of human OVCAR4 cells
[31] = system: BT-549; assay: Growth inhibition of human BT549 cells
[32] = system: SR; assay: Growth inhibition of human SR cells
[33] = system: Malme-3M; assay: Growth inhibition of human MALME-3M cells
[34] = system: EKVX; assay: Growth inhibition of human EKVX cells
[35] = system: SF-539; assay: Growth inhibition of human SF539 cells
[36] = system: MDA-N; assay: Growth inhibition of human MDA-N cells
[37] = system: OVCAR-5; assay: Growth inhibition of human OVCAR5 cells
[38] = system: RXF 393; assay: Growth inhibition of human RXF393 cells
[39] = system: CCRF-CEM; assay: Growth inhibition of human CCRF-CEM cells
[40] = system: A549; assay: Growth inhibition of human A549 cells
[41] = system: TK-10; assay: Growth inhibition of human TK10 cells
[42] = system: LOX IMVI; assay: Growth inhibition of human LOXIMVI cells
[43] = system: K562; assay: Growth inhibition of human K562 cells
[44] = system: IGROV-1; assay: Growth inhibition of human IGROV1 cells
[45] = system: T47D; assay: Growth inhibition of human T47D cells
[46] = system: SNB-19; assay: Growth inhibition of human SNB19 cells
[47] = system: OVCAR-8; assay: Growth inhibition of human OVCAR8 cells
[48] = system: SK-OV-3; assay: Growth inhibition of human SKOV3 cells
[49] = system: SN12C; assay: Growth inhibition of human SN12C cells
[50] = system: MOLT-4; assay: Growth inhibition of human MOLT4 cells
[51] = system: COLO 205; assay: Growth inhibition of human COLO205 cells
[52] = system: HCT-15; assay: Growth inhibition of human HCT15 cells
[53] = system: OVCAR-3; assay: Growth inhibition of human OVCAR-3 cells
[54] = system: MDA-MB-435; assay: Growth inhibition of human MDA-MB-435 cells
[55] = system: SNB-75; assay: Growth inhibition of human SNB75 cells
[56] = system: SK-MEL-2; assay: Growth inhibition of human SK-MEL-2 cells
[57] = system: UO-31; assay: Growth inhibition of human UO31 cells
[58] = system: DU-145; assay: Growth inhibition of human DU145 cells

## CC(C)=CC(=O)O[C@H]1C(=O)O[C@@H]2C[C@H]3[C@H](C)C(=O)C(O[C@@H]4O[C@H](CO)[C@@H](O)[C@H](O)[C@H]4O)=C[C@]3(C)[C@H]3[C@@H](O)[C@H](O)[C@]4(C(=O)O)OC[C@]32[C@@H]14 [BRUCEOSIDE D]
[1]
  GI50: > 100 µM
[2]
  GI50: 49 µM
[3]
  GI50: > 100 µM
[4]
  GI50: 39.8 µM
[5]
  GI50: 29.5 µM
[6]
  GI50: > 100 µM
[7]
  GI50: 22.4 µM
[8]
  GI50: > 100 µM
[9]
  GI50: > 100 µM
[10]
  GI50: > 100 µM
[11]
  GI50: 35.5 µM
[12]
  GI50: > 100 µM
[13]
  GI50: > 100 µM
[14]
  GI50: > 100 µM
[15]
  GI50: 28.2 µM
[16]
  GI50: > 100 µM
[17]
  GI50: 32.4 µM
[18]
  GI50: > 100 µM
[19]
  GI50: 28.8 µM
[20]
  GI50: 31.6 µM
[21]
  GI50: > 100 µM
[22]
  GI50: 33.1 µM
[23]
  GI50: 42.7 µM
[24]
  GI50: 32.4 µM
[25]
  GI50: 24.5 µM
[26]
  GI50: 37.2 µM
[27]
  GI50: 35.5 µM
[28]
  GI50: > 100 µM
[29]
  GI50: > 100 µM
[30]
  GI50: 25.1 µM
[31]
  GI50: > 100 µM
[32]
  GI50: 30.9 µM
[33]
  GI50: 24 µM
[34]
  GI50: > 100 µM
[35]
  GI50: 26.3 µM
[36]
  GI50: > 100 µM
[37]
  GI50: > 100 µM
[38]
  GI50: 25.1 µM
[39]
  GI50: 36.3 µM
[40]
  GI50: 55 µM
[41]
  GI50: > 100 µM
[42]
  GI50: 40.7 µM
[43]
  GI50: 25.7 µM
[44]
  GI50: > 100 µM
[45]
  GI50: > 100 µM
[46]
  GI50: 31.6 µM
[47]
  GI50: > 100 µM
[48]
  GI50: > 100 µM
[49]
  GI50: > 100 µM
[50]
  GI50: 22.4 µM
[51]
  GI50: > 100 µM
[52]
  GI50: > 100 µM
[53]
  GI50: 20.4 µM
[54]
  GI50: > 100 µM
[55]
  GI50: > 100 µM
[56]
  GI50: > 100 µM
[57]
  GI50: 31.6 µM
[58]
  GI50: > 100 µM

## CC(=O)OC(C)(C)/C(C)=C/C(=O)O[C@H]1C(=O)O[C@@H]2C[C@H]3[C@H](C)C(=O)C(O[C@@H]4O[C@H](CO)[C@@H](O)[C@H](O)[C@H]4O)=C[C@]3(C)[C@H]3[C@@H](O)[C@H](O)[C@]4(C(=O)O)OC[C@]32[C@@H]14 [BRUCEOSIDE F]
[1]
  GI50: > 100 µM
[2]
  GI50: > 100 µM
[3]
  GI50: > 100 µM
[4]
  GI50: > 100 µM
[5]
  GI50: 38 µM
[6]
  GI50: > 100 µM
[7]
  GI50: 27.5 µM
[8]
  GI50: > 100 µM
[9]
  GI50: > 100 µM
[10]
  GI50: > 100 µM
[11]
  GI50: > 100 µM
[12]
  GI50: > 100 µM
[13]
  GI50: > 100 µM
[14]
  GI50: > 100 µM
[15]
  GI50: 72.4 µM
[16]
  GI50: > 100 µM
[17]
  GI50: > 100 µM
[18]
  GI50: > 100 µM
[19]
  GI50: 18.6 µM
[20]
  GI50: 66.1 µM
[21]
  GI50: > 100 µM
[22]
  GI50: 69.2 µM
[23]
  GI50: > 100 µM
[24]
  GI50: 39.8 µM
[25]
  GI50: 36.3 µM
[26]
  GI50: > 100 µM
[27]
  GI50: 47.9 µM
[28]
  GI50: > 100 µM
[29]
  GI50: > 100 µM
[30]
  GI50: > 100 µM
[31]
  GI50: > 100 µM
[32]
  GI50: 49 µM
[33]
  GI50: 56.2 µM
[34]
  GI50: > 100 µM
[35]
  GI50: 56.2 µM
[36]
  GI50: > 100 µM
[37]
  GI50: > 100 µM
[38]
  GI50: 37.2 µM
[39]
  GI50: 43.7 µM
[40]
  GI50: > 100 µM
[41]
  GI50: > 100 µM
[42]
  GI50: > 100 µM
[43]
  GI50: 39.8 µM
[44]
  GI50: > 100 µM
[45]
  GI50: > 100 µM
[46]
  GI50: > 100 µM
[47]
  GI50: > 100 µM
[48]
  GI50: > 100 µM
[49]
  GI50: > 100 µM
[50]
  GI50: 33.9 µM
[51]
  GI50: > 100 µM
[52]
  GI50: > 100 µM
[53]
  GI50: 25.7 µM
[54]
  GI50: > 100 µM
[55]
  GI50: > 100 µM
[56]
  GI50: > 100 µM
[57]
  GI50: > 100 µM
[58]
  GI50: > 100 µM

## CC(C)CC(=O)O[C@H]1C(=O)O[C@@H]2C[C@H]3[C@H](C)C(=O)C(O[C@@H]4O[C@H](CO)[C@@H](O)[C@H](O)[C@H]4O)=C[C@]3(C)[C@H]3[C@@H](O)[C@H](O)[C@]4(C(=O)O)OC[C@]32[C@@H]14 [BRUCEOSIDE E]
[1]
  GI50: > 100 µM
[2]
  GI50: > 100 µM
[3]
  GI50: > 100 µM
[4]
  GI50: 31.6 µM
[5]
  GI50: 33.1 µM
[6]
  GI50: > 100 µM
[7]
  GI50: 28.2 µM
[8]
  GI50: > 100 µM
[9]
  GI50: > 100 µM
[10]
  GI50: > 100 µM
[11]
  GI50: 33.9 µM
[12]
  GI50: > 100 µM
[13]
  GI50: > 100 µM
[14]
  GI50: > 100 µM
[15]
  GI50: 29.5 µM
[16]
  GI50: > 100 µM
[17]
  GI50: > 100 µM
[18]
  GI50: 39.8 µM
[19]
  GI50: 2.19 µM
[20]
  GI50: 37.2 µM
[21]
  GI50: > 100 µM
[22]
  GI50: 44.7 µM
[23]
  GI50: 28.2 µM
[24]
  GI50: 27.5 µM
[25]
  GI50: 20.4 µM
[26]
  GI50: 25.1 µM
[27]
  GI50: 41.7 µM
[28]
  GI50: > 100 µM
[29]
  GI50: > 100 µM
[30]
  GI50: 1.91 µM
[31]
  GI50: > 100 µM
[32]
  GI50: 33.9 µM
[33]
  GI50: 22.9 µM
[34]
  GI50: > 100 µM
[35]
  GI50: 20.4 µM
[36]
  GI50: > 100 µM
[37]
  GI50: > 100 µM
[38]
  GI50: 10.7 µM
[39]
  GI50: 24.5 µM
[40]
  GI50: 41.7 µM
[41]
  GI50: > 100 µM
[42]
  GI50: 38.9 µM
[43]
  GI50: 24 µM
[44]
  GI50: 35.5 µM
[45]
  GI50: > 100 µM
[46]
  GI50: 31.6 µM
[47]
  GI50: > 100 µM
[48]
  GI50: > 100 µM
[49]
  GI50: > 100 µM
[50]
  GI50: 19.1 µM
[51]
  GI50: > 100 µM
[52]
  GI50: > 100 µM
[53]
  GI50: 36.3 µM
[54]
  GI50: > 100 µM
[55]
  GI50: > 100 µM
[56]
  GI50: > 100 µM
[57]
  GI50: > 100 µM
[58]
  GI50: > 100 µM
